Test system: blood brain barrier (BBB); brain, cerebellum
Assay: Biodistribution of [18F]-AuNP in rats by small animal micro-PET
Assay type: in vivo, SD (Sprague-Dawley) rats
Settings: healthy rats, intravenous injection, micro-PET brain scan
Experimental: To evaluate the bio-distribution of the AuNPs, [^18F] SiFA-AuNP (12 MBq) were injected into healthy rats (n=3) and evaluated by micro-PET. Representative body and brain scan images of a micro-PET scan following intravenous injection of a solution of [^18F]-SiFA-AuNP are illustrated in FIG. 8. Radioactivity was found in the kidney, liver and spleen.
The time-activity curves obtained from the PET images depicting the radioactivity uptake in the cerebellum and the brain (n=3), using bone radioactivity as a region of reference, are illustrated in FIG. 9 These curves illustrate that AuNPs start to accumulate in the cerebellum and brain at 25-120 min. Ex vivo biodistribution studies were also carried out to confirm the bio-distribution data of [^18F]-SiFA-AuNP in different organs 2 h following injection as obtained by micro-PET. The biodistribution data is illustrated in FIG. 10 and is expressed as the percentage of injected dose for each gram of tissue (% ID/g). […]
Biodistribution of [^18F]-AuNP in Rats by small animal PET: SD (Sprague-Dawley) Rats for in vivo PET studies were housed in a 12 h light/dark cycle at 21° C. with access to food and water ad libitum. […] Respiration rate, heart rate and body temperature were monitored throughout the scan (Biopac sytems MP150, Goleta, Calif., USA). […] The PET images were analyzed using ASIPRO software (Concorde Microsystems). […]

CC(C)(C)[Si](F)(c1ccc(S)cc1)C(C)(C)C [[^18F]-SiFA-SH, ^18F-labeled 4-(di-tert-butylfluorosilanyl)benzenethiol]
crossing of the blood brain barrier (BBB): does not cross the BBB
